The record followed here is patent US7635664B2, “Herbicidal substituted benzoylpyrazoles” (Bayer CropScience AG, priority 2001, dated 2009).

SMILES strings stand for the structures.

Data set [1] relates to weeds. As to the kind of experiment: Pre-emergence test (Example A), weeds. The note with it: soil sprayed 24 hours after sowing; rated after three weeks as % damage vs untreated control. The data set is classed as in vivo. Here is the method:
(§1) To produce a suitable preparation of active compound, 1 part by weight of active compound is mixed with the stated amount of solvent, the stated amount of emulsifier is added and the concentrate is diluted with water to the desired concentration.
Seeds of the test plants are sown in normal soil. After 24 hours, the soil is sprayed with the preparation of active compound such that the particular amount of active compound desired is applied per unit area. The concentration of active compound in the spray liquor is chosen such that the particular amount of active compound desired is applied in 1000 liters of water per hectare.
After three weeks, the degree of damage to the plants is rated in % damage in comparison to the development of the untreated control. The figures denote: • 0%=no effect (like untreated control) • 100%=total destruction

A short description of data set [2]: logP determination by HPLC on reversed-phase column, acidic range. To be noted: for logP: marked a): acidic range, 0.1% aqueous phosphoric acid/acetonitrile gradient, reversed-phase C 18 HPLC, 43° C. In kind it is physicochemical. From the text:
(a) Mobile phases for the determination in the acidic range: 0.1% aqueous phosphoric acid, acetonitrile; linear gradient from 10% acetonitrile to 90% acetonitrile—the corresponding measurement results in Table 1 are marked ^a).

Data set [3] has as its system weeds. As to the kind of experiment: Post-emergence test (Example B), weeds. In kind it is in vivo. To be noted: test plants of a height of 5-15 cm sprayed; rated after three weeks as % damage vs untreated control. Here is the method:
as §1
Test plants of a height of 5-15 cm are sprayed with the preparation of active compound such that the particular amounts of active compound desired are applied per unit area. The concentration of the spray liquor is chosen such that the particular amounts of active compound desired are applied in 1000 l of water/ha.
After three weeks, the degree of damage to the plants is rated in % damage in comparison to the development of the untreated control.
The figures denote: • 0%=no effect (like untreated control) • 100%=total destruction

In general, chromatographic logP refers to a lipophilicity value derived from retention on a column.

For `CCn1ncc(C(=O)c2ccc(Cl)c(NC(=O)N3CCN(C)C3=O)c2Cl)c1O` [Example 1, N-[2,6-dichloro-3-[(1-ethyl-5-hydroxy-1H-pyrazol-4-yl)-carbonyl]-phenyl]-3-methyl-2-oxo-1-imidazolidinecarboxamide], the “activity against weeds, pre-emergence” value in data set [1] was “strong activity”. Further, the chromatographic logP in data set [2] (reversed-phase C18 HPLC column, pH=2.3) came out at 1.58. Besides, the “activity against weeds, post-emergence” value in data set [3] was “strong activity”.

Consider `CCn1ncc(C(=O)c2ccc(Cl)c(NC(=O)N(C)OC)c2Cl)c1O` [Example 2], for which the “activity against weeds, pre-emergence” value in data set [1] was “strong activity”. The logP result in data set [2] is given as “(I-2) logP = 1,39^a)”. In data set [3], the “activity against weeds, post-emergence” value was “strong activity”.

As for `CN1CCN(C(=O)Nc2c(Cl)ccc(C(=O)c3cnn(C)c3O)c2Cl)C1=O` [Example 4], in data set [1], the “activity against weeds, pre-emergence” value is reported as “strong activity”. Further, the logP entry in data set [2] is given as “(I-2) logP = 1.32^a)”.

On to `CCn1ncc(C(=O)c2ccc(Cl)c(NC(=O)N3CCCN(C)C3=O)c2Cl)c1O` [Example 5], for which the “activity against weeds, pre-emergence” value in data set [1] is given as “strong activity”. For the same compound, the logP result in data set [2] is given as “(I-2) logP = 1.83^a)”. Further, the “activity against weeds, post-emergence” value in data set [3] was “strong activity”.

Regarding `CCn1ncc(C(=O)c2ccc(Cl)c(NC(=O)N3CCOCC3)c2Cl)c1O` [Example 6], in data set [1], the “activity against weeds, pre-emergence” value was “strong activity”. In addition, the logP entry in data set [2] is recorded as “(I-2) logP = 1.13^a)”.
